According to US20100184134A1, “DUAL CHARGING SYSTEM FOR SELECTIVELY INTRODUCING NON-NATIVE AMINO ACIDS INTO PROTEINS USING AN IN VITRO SYNTHESIS METHOD” (priority 2009, published 2010):

Experiments:
PheRS = target: T1, PheRS (Escherichia coli, UniProt P08312); assay: Inhibition of the rate of cell-free synthesis of turboGFP by Phe-SA; type: biochemical, E. coli
T1 construct: endogenous in cells; host or cells: cell-free extract (lysate) of E. coli strain KGK10
Description: (§1) Cell-free extracts or lysates were generated to maximize ribosome yield using rapid growth of high cell density fermentations of E. coli strain KGK10 (Knapp, Goerke et al. (2007) Biotechnol Bioeng, 97, 901-8), essentially as described by Liu et al.(Liu, Zawada et al. (2005) Biotechnol Prog, 21, 460-5) DL-dithiothreitol was not added to the cell lysate following homogenization. A modified “run-off procedure” was used to prepare the cell-free extract. Fermentation volume to generate sufficient cell-free extract was typically 2.5× the desired cell-free reaction volume. To inactivate the reducing activity of the cell extract, iodoacetamide (IAM) at various concentrations was added as previously described (Yang, Kanter et al. (2004) Biotechnol Prog, 20, 1689-96). Gene expression was under the control of the T7 promoter. In order to facilitate translation initiation, genes were synthesized (DNA 2.0, Menlo Park, Calif.) with synonymous codons at the 5′ end of the gene with ATG start codon (N-terminal methionine residue) optimized for mRNA instability as measured by mRNA ΔGfold in the −6 to +37 positions (Kudla, Murray et al. (2009) Science, 324, 255-258) and rare codons were replaced. […]

[1] = target: T2, endogenous activity of PheRS (Escherichia coli, UniProt P08312); assay: Cell-free synthesis of turboGFP Y50TAG with added uncharged tRNAs in the presence of Phe-SA; type: biochemical, E. coli; details: 12 nM Phe-SA; uncharged tRNACUA^Phe and tRNAGAA^Phe added
T2 construct: endogenous in cells; host or cells: cell-free extract (lysate) of E. coli strain KGK10
T2 sequence (P08312 whole entry): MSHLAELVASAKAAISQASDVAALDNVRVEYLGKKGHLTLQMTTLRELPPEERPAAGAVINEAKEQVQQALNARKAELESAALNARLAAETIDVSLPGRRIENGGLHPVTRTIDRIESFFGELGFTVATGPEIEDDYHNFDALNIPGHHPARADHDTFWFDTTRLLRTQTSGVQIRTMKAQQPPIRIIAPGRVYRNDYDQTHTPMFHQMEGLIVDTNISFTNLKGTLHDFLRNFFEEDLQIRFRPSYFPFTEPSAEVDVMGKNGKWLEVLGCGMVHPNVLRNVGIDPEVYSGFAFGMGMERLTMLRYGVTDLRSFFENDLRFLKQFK
T2 sequence (P07395 whole entry, further chain): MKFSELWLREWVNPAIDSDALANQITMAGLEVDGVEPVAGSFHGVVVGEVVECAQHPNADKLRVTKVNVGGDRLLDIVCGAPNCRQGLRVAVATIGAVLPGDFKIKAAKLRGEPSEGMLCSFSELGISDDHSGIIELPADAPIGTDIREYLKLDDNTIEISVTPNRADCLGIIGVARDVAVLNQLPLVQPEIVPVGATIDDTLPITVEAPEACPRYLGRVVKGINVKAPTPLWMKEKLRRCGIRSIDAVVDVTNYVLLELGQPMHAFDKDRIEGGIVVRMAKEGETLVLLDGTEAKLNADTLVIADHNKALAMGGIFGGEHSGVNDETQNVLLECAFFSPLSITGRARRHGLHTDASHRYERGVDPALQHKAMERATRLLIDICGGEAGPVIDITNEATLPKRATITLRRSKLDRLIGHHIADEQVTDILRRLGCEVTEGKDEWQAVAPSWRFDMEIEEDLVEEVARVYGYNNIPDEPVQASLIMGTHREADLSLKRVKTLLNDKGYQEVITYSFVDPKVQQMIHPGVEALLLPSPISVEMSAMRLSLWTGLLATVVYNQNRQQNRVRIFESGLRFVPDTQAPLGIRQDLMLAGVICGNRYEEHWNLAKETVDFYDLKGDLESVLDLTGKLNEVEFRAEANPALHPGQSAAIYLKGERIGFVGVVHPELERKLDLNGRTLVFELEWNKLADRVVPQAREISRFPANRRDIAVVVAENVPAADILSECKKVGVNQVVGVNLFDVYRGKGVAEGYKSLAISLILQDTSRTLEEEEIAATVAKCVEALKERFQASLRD
Experimental: A control reaction containing turboGFP Y50TAG plasmid only yields no fluorescence, consistent with the ca. 6 kD truncated product (cf FIG. 22). The incorporation of para-acetyl phenylalanine at position 50 using the UAG-specific E. coli phenylalanine tRNACUA^Phe and tRNAGAA^Phe was measured in the presence 12 nM Phe-SA inhibitor, to inhibit the endogenous activity of PheRS (cf. FIG. 19c). […] In contrast, addition of various concentrations of both charged pAF-tRNACUA^Phe and Phe-tRNAGAA^Phe results in 13-20% of the wild-type fluorescence after 5 h, consistent with significant protein synthesis with incorporation of pAF at position 50.

GluRS = GluRS (Escherichia coli, UniProt P04805); details: read-out: IC50 for inhibition of the rate of cell-free synthesis of turboGFP; cell-free reaction at 30° C., fluorescence monitored for 5 h, maximal rate of fluorescence change
Chain of GluRS (P04805 whole entry): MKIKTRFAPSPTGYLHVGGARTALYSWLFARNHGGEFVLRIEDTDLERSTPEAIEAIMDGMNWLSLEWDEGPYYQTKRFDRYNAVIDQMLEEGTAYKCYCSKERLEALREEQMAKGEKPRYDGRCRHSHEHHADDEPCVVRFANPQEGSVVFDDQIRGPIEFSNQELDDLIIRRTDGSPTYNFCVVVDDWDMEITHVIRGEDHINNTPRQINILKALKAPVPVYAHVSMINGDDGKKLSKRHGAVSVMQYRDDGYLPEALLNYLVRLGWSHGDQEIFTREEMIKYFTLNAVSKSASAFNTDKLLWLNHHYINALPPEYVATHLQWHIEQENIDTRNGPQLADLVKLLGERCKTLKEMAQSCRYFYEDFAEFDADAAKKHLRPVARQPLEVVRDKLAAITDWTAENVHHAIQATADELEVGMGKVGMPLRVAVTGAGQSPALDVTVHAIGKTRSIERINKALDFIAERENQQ
Description: as §1

T1 sequence (P07395 whole entry): as the sequence (P07395 whole entry, further chain) above
T1 sequence (P08312 whole entry): as the sequence (P08312 whole entry) above

Nc1ncnc2c1ncn2[C@@H]1O[C@H](COS(=O)(=O)NC(=O)[C@@H](N)Cc2ccccc2)[C@@H](O)[C@H]1O [Phe-SA, 5′-O-[N-(Phenylalanyl)sulfamoyl] adenosine]
IC50 (PheRS): 0.8 nM | turboGFP fluorescence activity (percent relative activity) (PheRS; 1 nM Phe-SA inhibitor): ~50% | inhibition of PheRS (no protein synthesized with uncharged tRNAs) [1]: completely inhibited

Nc1ncnc2c1ncn2[C@@H]1O[C@H](COS(=O)(=O)NC(=O)[C@@H](N)CCC(=O)O)[C@@H](O)[C@H]1O [Glu-SA]
IC50 (GluRS): 54 nM
